# Results from ChEMBL document CHEMBL2040791, “Synthesis of novel 6-(4-substituted piperazine-1-yl)-9-(β-D-ribofuranosyl)purine derivatives, which lead to senescence-induced cell death in liver cancer cells” (J Med Chem, 2012).
# Calls of active or inactive are those of the source. The rule behind the calls is not given here.
# Legend:
# [1] = Cytotoxicity against human Mahlavu cells after 72 hrs by SRB assay; type: functional, cell-based
# HCT-116 = assay: Cytotoxicity against human HCT116 cells after 72 hrs by SRB assay; type: functional, cell-based
# Huh-7 [2] = assay: Cytotoxicity against human HuH7 cells after 72 hrs by SRB assay; type: functional, cell-based
# HepG2 [3] = assay: Cytotoxicity against human HepG2 cells after 72 hrs by SRB assay; type: functional, cell-based
# MCF7 = assay: Cytotoxicity against human MCF7 cells after 72 hrs by SRB assay; type: functional, cell-based
# [4] = Cytotoxicity against human FOCUS cells after 72 hrs by SRB assay; type: functional, cell-based
# Huh-7 [5] = assay: Inhibition of protein kinase in human HuH7 cells assessed as increase in ATP level at 5 uM after 72 hrs by Kinase-Glo assay; type: cell-based
# HepG2 [6] = assay: Growth inhibition of human HepG2 cells at 5 to 30 uM by real-time cell electronic sensing assay; type: functional, cell-based; details: TDE = time-dependent effect
# Huh-7 [7] = assay: Antiproliferative activity in human HuH7 cells assessed as inhibition of BrdU incorporation at cytotoxic IC50 to IC100 concentration after 3 to 6 days; type: functional, cell-based
# Huh-7 [8] = assay: Growth inhibition of human HuH7 cells measured every 30 mins by real-time cell electronic sensing assay; type: functional, cell-based
# FOCUS [9] = assay: Induction of necrosis in human FOCUS cells assessed as PARP cleavage into 50 kDa fragment at 5.2 uM after 72 hrs by Western blot analysis; type: functional, cell-based
# Huh-7 [10] = assay: Induction of p15INK4b protein expression in human HuH7 cells at cytotoxic IC50 to IC100 concentration by Western blot analysis; type: functional, cell-based; details: TDE = time-dependent effect
# Mahlavu [11] = assay: Induction of apoptosis in human Mahlavu cells assessed as PARP cleavage into 89 kDa and 24 kDa fragments at 9.2 uM after 72 hrs by Western blot analysis; type: functional, cell-based
# FOCUS [12] = assay: Growth inhibition of human FOCUS cells measured every 30 mins by real-time cell electronic sensing assay; type: functional, cell-based
# Huh-7 [13] = assay: Induction of apoptosis in human HuH7 cells assessed as PARP cleavage into 89 kDa and 24 kDa fragments at 7.8 uM after 72 hrs by Western blot analysis; type: functional, cell-based
# HepG2 [14] = assay: Induction of apoptosis in human HepG2 cells assessed as PARP cleavage into 89 kDa and 24 kDa fragments at 5.7 uM after 72 hrs by Western blot analysis; type: functional, cell-based
# Mahlavu [15] = assay: Growth inhibition of human Mahlavu cells measured every 30 mins by real-time cell electronic sensing assay; type: functional
# FOCUS [16] = assay: Growth inhibition of human FOCUS cells at 5 to 30 uM by real-time cell electronic sensing assay; type: functional, cell-based; details: TDE = time-dependent effect
# Huh-7 [17] = assay: Growth inhibition of human HuH7 cells at 5 to 30 uM by real-time cell electronic sensing assay; type: functional, cell-based; details: TDE = time-dependent effect
# Huh-7 [18] = assay: Inhibition of protein kinase in human HuH7 cells assessed as increase in ATP level after 72 hrs by Kinase-Glo assay; type: cell-based
# Mahlavu [19] = assay: Induction of necrosis in human Mahlavu cells assessed as PARP cleavage into 50 kDa fragment at 9.2 uM after 72 hrs by Western blot analysis; type: functional, cell-based
# Huh-7 [20] = assay: Induction of p15INK4b protein expression in human HuH7 cells assessed as inhibition of cyclinD1/[…]-mediated Rb phosphorylation at cytotoxic IC50 to IC100 concentration after 6 days by Western blot analysis; type: functional, cell-based
# HepG2 [21] = assay: Growth inhibition of human HepG2 cells measured every 30 mins by real-time cell electronic sensing assay; type: functional, cell-based
# Mahlavu [22] = assay: Growth inhibition of human Mahlavu cells at 5 to 30 uM by real-time cell electronic sensing assay; type: functional; details: TDE = time-dependent effect
# Huh-7 [23] = assay: Induction of necrosis in human HuH7 cells assessed as PARP cleavage into 50 kDa fragment at 7.8 uM after 72 hrs by Western blot analysis; type: functional, cell-based
# Huh-7 [24] = assay: Induction of senescence in human HuH7 cells assessed as increase in senescence associated beta-galactosidase activity at cytotoxic IC50 to IC100 concentration after 3 to 6 days by X-GAL based staining method; type: functional, cell-based
# HepG2 [25] = assay: Induction of necrosis in human HepG2 cells assessed as PARP cleavage into 50 kDa fragment into at 5.7 uM after 72 hrs by Western blot analysis; type: functional, cell-based
# FOCUS [26] = assay: Induction of apoptosis in human FOCUS cells assessed as PARP cleavage into 89 kDa and 24 kDa fragments at 5.2 uM after 72 hrs by Western blot analysis; type: functional, cell-based
# Huh-7 [27] = assay: Induction of p15INK4b protein expression in human HuH7 cells after 3 to 6 days by Western blot analysis; type: functional, cell-based
# Huh-7 [28] = assay: Antiproliferative activity in human HuH7 cells assessed as inhibition of BrdU incorporation at 25 ng/mL after 3 to 6 days; type: functional, cell-based
# Huh-7 [29] = assay: Induction of senescence in human HuH7 cells assessed as increase in senescence associated beta-galactosidase activity at 25 ng/mL after 3 to 6 days by X-GAL based staining method; type: functional, cell-based
# [30] = Homo sapiens, HCT-116, 72 h, read-out: IC50
# [31] = hct-116, TDE = time-dependent effect
# [32] = Homo sapiens, Huh-7, 72 h, read-out: IC50
# [33] = huh-7, TDE = time-dependent effect
# [34] = Homo sapiens, HepG2, 72 h, read-out: IC50
# [35] = hepg2, TDE = time-dependent effect
# [36] = Homo sapiens, MCF7, 72 h, read-out: IC50
# [37] = mcf7, TDE = time-dependent effect
smiles,measurement,setting,value
OC[C@H]1O[C@@H](n2cnc3c(N4CCN(c5ccccc5)CC4)ncnc32)[C@H](O)[C@@H]1O,IC50,[1],> 100 µM
same,IC50,HCT-116; [30],> 100 µM
same,IC50,HCT-116; [31],tde
same,IC50,Huh-7 [2]; [32],> 100 µM
same,IC50,Huh-7 [2]; [33],tde
same,IC50,HepG2 [3]; [34],> 100 µM
same,IC50,HepG2 [3]; [35],tde
same,IC50,MCF7; [36],> 100 µM
same,IC50,MCF7; [37],tde
same,IC50,[4],> 100 µM
O=c1[nH]cc(F)c(=O)[nH]1 [FLUOROURACIL],IC50,[1],10 µM
same,IC50,HCT-116; [30],6 µM
same,IC50,Huh-7 [2]; [32],30.7 µM
same,IC50,HepG2 [3]; [34],5 µM
same,IC50,MCF7; [36],3.5 µM
same,IC50,[4],7.6 µM
CSC[C@H]1O[C@@H](n2cnc3c(N)ncnc32)[C@H](O)[C@@H]1O,inhibition,Huh-7 [5],Active
CC[C@@]1(O)C(=O)OCc2c1cc1n(c2=O)Cc2cc3ccccc3nc2-1 [CAMPTOTHECIN],IC50,[1],< 0.1 µM
same,IC50,HCT-116; [30],< 0.1 µM
same,IC50,Huh-7 [2]; [32],< 0.1 µM
same,IC50,HepG2 [3]; [34],< 0.1 µM
same,IC50,MCF7; [36],< 0.1 µM
same,IC50,[4],< 0.1 µM
OC[C@H]1O[C@@H](n2cnc3c(N4CCN(c5ccc(Cl)c(Cl)c5)CC4)ncnc32)[C@H](O)[C@@H]1O,IC50,[1],7 µM
same,IC50,HCT-116; [30],8.4 µM
same,IC50,HCT-116; [31],tde
same,IC50,Huh-7 [2]; [32],7.1 µM
same,IC50,Huh-7 [2]; [33],tde
same,IC50,HepG2 [3]; [34],6.1 µM
same,IC50,HepG2 [3]; [35],tde
same,IC50,MCF7; [36],9.7 µM
same,IC50,MCF7; [37],tde
same,IC50,[4],5.5 µM
OC[C@H]1O[C@@H](n2cnc3c(N4CCN(c5ccc(C(F)(F)F)cc5)CC4)ncnc32)[C@H](O)[C@@H]1O,growth inhibition (GI),HepG2 [6],tde
same,Activity,Huh-7 [7],Active
same,growth inhibition (GI),Huh-7 [8],Dose-dependent effect
same,Activity,FOCUS [9],inactive
same,Activity,Huh-7 [10],tde
same,IC50,[1],9.2 µM
same,Activity,Mahlavu [11],inactive
same,growth inhibition (GI),FOCUS [12],Dose-dependent effect
same,Activity,Huh-7 [13],inactive
same,IC50,HCT-116; [30],6.7 µM
same,IC50,HCT-116; [31],tde
same,Activity,HepG2 [14],inactive
same,IC50,Huh-7 [2]; [32],7.8 µM
same,IC50,Huh-7 [2]; [33],tde
same,growth inhibition (GI),Mahlavu [15],Dose-dependent effect
same,growth inhibition (GI),FOCUS [16],tde
same,growth inhibition (GI),Huh-7 [17],tde
same,IC50,HepG2 [3]; [34],5.7 µM
same,IC50,HepG2 [3]; [35],tde
same,inhibition,Huh-7 [18],Dose-dependent effect
same,Activity,Mahlavu [19],inactive
same,Activity,Huh-7 [20],Active
same,growth inhibition (GI),HepG2 [21],Dose-dependent effect
same,IC50,MCF7; [36],7.5 µM
same,IC50,MCF7; [37],tde
same,growth inhibition (GI),Mahlavu [22],tde
same,Activity,Huh-7 [23],inactive
same,Activity,Huh-7 [24],Active
same,Activity,HepG2 [25],inactive
same,Activity,FOCUS [26],inactive
same,IC50,[4],5.2 µM
same,Activity,Huh-7 [27],Dose-dependent effect
OC[C@H]1O[C@@H](n2cnc3c(N4CCN(c5ccc(F)cc5)CC4)ncnc32)[C@H](O)[C@@H]1O,IC50,[1],> 100 µM
same,IC50,HCT-116; [30],> 100 µM
same,IC50,HCT-116; [31],tde
same,IC50,Huh-7 [2]; [32],49.7 µM
same,IC50,Huh-7 [2]; [33],tde
same,IC50,HepG2 [3]; [34],> 100 µM
same,IC50,HepG2 [3]; [35],tde
same,IC50,MCF7; [36],> 100 µM
same,IC50,MCF7; [37],tde
same,IC50,[4],> 100 µM
OC[C@H]1O[C@@H](n2cnc3c(N4CCN(C(c5ccccc5)c5ccccc5)CC4)ncnc32)[C@H](O)[C@@H]1O,IC50,[1],92.7 µM
same,IC50,HCT-116; [30],48.5 µM
same,IC50,HCT-116; [31],tde
same,IC50,Huh-7 [2]; [32],44.4 µM
same,IC50,Huh-7 [2]; [33],tde
same,IC50,HepG2 [3]; [34],63.5 µM
same,IC50,HepG2 [3]; [35],tde
same,IC50,MCF7; [36],40.1 µM
same,IC50,MCF7; [37],tde
same,IC50,[4],> 100 µM
COc1cccc2c1C(=O)c1c(O)c3c(c(O)c1C2=O)C[C@@](O)(C(=O)CO)C[C@@H]3O[C@H]1C[C@H](N)[C@H](O)[C@H](C)O1,Activity,Huh-7 [28],Active
same,Activity,Huh-7 [29],Active
